Measurements reported in ChEMBL document CHEMBL3880421, “Indazole compounds and pharmaceutical compositions for inhibiting protein kinases, and methods for their use” (2003).

Tests used:
Format in all cases: functional
Conditions in all cases: Homo sapiens
[1] = Antiproliferative activity against VEGF-stimulated HUVEC cells assessed as reduction in cell viability at 10 nM preincubated for 1 hr followed by addition of VEGF measured after 72 hrs by MTT assay
[2] = Antiproliferative activity against VEGF-stimulated HUVEC cells assessed as reduction in cell viability at 0.5 nM preincubated for 1 hr followed by addition of VEGF measured after 72 hrs by MTT assay
[3] = Antiproliferative activity against VEGF-stimulated HUVEC cells assessed as reduction in cell viability at 2 nM preincubated for 1 hr followed by addition of VEGF measured after 72 hrs by MTT assay

| Compound | inhibition at 0.01 µM [1] [%] | inhibition at 0.0005 µM [2] [%] | inhibition at 0.002 µM [3] [%] |
| --- | --- | --- | --- |
| CN1CC(C(=O)Nc2cccc(C(=O)c3ccc4c(/C=C/c5ccccc5)n[nH]c4c3)c2)CC1=O (stereo not drawn) | 10 |  |  |
| O=C(Cc1ccccc1)C(=O)Nc1cccc(Oc2ccc3c(/C=C/c4ccccc4)n[nH]c3c2)c1 | 25 |  |  |
| CC1(C)C(C(=O)Nc2cccc(Oc3ccc4c(/C=C/c5ccccc5)n[nH]c4c3)c2)C1(C)C | 71 |  |  |
| CC(=O)N1CCC[C@@H]1C(=O)Nc1cccc(Oc2ccc3c(/C=C/c4ccccc4)n[nH]c3c2)c1 | 20 |  |  |
| CC(C)=NOC(C)C(=O)Nc1cccc(C(=O)c2ccc3c(/C=C/c4ccccc4)n[nH]c3c2)c1 (stereo not drawn) | 28 |  |  |
| CCC(C(=O)Nc1cccc(Nc2ccc3c(/C=C/c4ccccc4)n[nH]c3c2)c1)c1ccccc1C (stereo not drawn) | -3 |  |  |
| O=C(Nc1cccc(Oc2ccc3c(/C=C/c4ccccc4)n[nH]c3c2)c1)C1C[C@H]2C=C[C@H]1C2 (stereo partly drawn) | 82 |  |  |
| O=C(Nc1cccc(Nc2ccc3c(/C=C/c4ccccc4)n[nH]c3c2)c1)c1cc(=O)[nH]c(=O)[nH]1 | 12 |  |  |
| CCCN(CCC)CC(=O)Nc1cccc(C(=O)c2ccc3c(/C=C/c4ccccc4)n[nH]c3c2)c1 | -2 |  |  |
| O=C(Cc1cc(F)cc(F)c1)Nc1cccc(C(=O)c2ccc3c(/C=C/c4ccccc4)n[nH]c3c2)c1 | 87 |  |  |
| CC(=O)N1CCCC1C(=O)Nc1cccc(Oc2ccc3c(/C=C/c4ccccc4)n[nH]c3c2)c1 (stereo not drawn) | 19 |  |  |
| CC(C)c1ccccc1C(=O)Nc1cccc(Nc2ccc3c(/C=C/c4ccccc4)n[nH]c3c2)c1 | 79 |  |  |
| COc1cccc(CC(=O)Nc2cccc(Oc3ccc4c(/C=C/c5ccccc5)n[nH]c4c3)c2)c1 | 86 |  |  |
| C[C@@H]1[C@H](C)[C@H](C)C[C@@H]1C(=O)Nc1cccc(C(=O)c2ccc3c(/C=C/c4ccccc4)n[nH]c3c2)c1 | 5 |  |  |
| O=C(c1cccc(NC(=O)C2C[C@H]3C=C[C@H]2C3)c1)c1ccc2c(/C=C/c3ccccc3)n[nH]c2c1 (stereo partly drawn) | 44 |  |  |
| O=C(CCN1CCCCC1)Nc1cccc(Oc2ccc3c(/C=C/c4ccccc4)n[nH]c3c2)c1 | 52 |  |  |
| O=C(CC1CC2CCC1C2)Nc1cccc(Oc2ccc3c(/C=C/c4ccccc4)n[nH]c3c2)c1 (stereo not drawn) | 78 |  |  |
| O=C(Nc1cccc(C(=O)c2ccc3c(/C=C/c4ccccc4)n[nH]c3c2)c1)C(=O)C1=CCCCC1 | 45 |  |  |
| CCNc1ccccc1C(=O)Nc1cccc(C(=O)c2ccc3c(/C=C/c4ccccc4)n[nH]c3c2)c1 | 54 |  |  |
| Cc1ccc(C2(C(=O)Nc3cccc(Nc4ccc5c(/C=C/c6ccccc6)n[nH]c5c4)c3)CC2)cc1 | 2 |  |  |
| O=C(Nc1cccc(Oc2ccc3c(/C=C/c4ccccc4)n[nH]c3c2)c1)C(O)c1ccccc1 (stereo not drawn) | 56 |  |  |

| Compound | inhibition at 0.01 µM [1] [%] | inhibition at 0.0005 µM [2] [%] | inhibition at 0.002 µM [3] [%] |
| --- | --- | --- | --- |
| CCC(C(=O)Nc1cccc(C(=O)c2ccc3c(/C=C/c4ccccc4)n[nH]c3c2)c1)c1ccccc1C (stereo not drawn) | 3 |  |  |
| O=C(c1cccc(NC(=O)c2cc(=O)cco2)c1)c1ccc2c(/C=C/c3ccccc3)n[nH]c2c1 | -13 |  |  |
| CC(=O)N1CCC(C(=O)Nc2cccc(Oc3ccc4c(/C=C/c5ccccc5)n[nH]c4c3)c2)CC1 | 42 |  |  |
| O=C(Cc1cc(F)ccc1F)Nc1cccc(Oc2ccc3c(/C=C/c4ccccc4)n[nH]c3c2)c1 | 91 |  |  |
| O=C(CCN1CCCCC1)Nc1cccc(Nc2ccc3c(/C=C/c4ccccc4)n[nH]c3c2)c1 | 30 |  |  |
| C[C@@]12C[C@H]3C[C@H]1C[C@@]3(C(=O)Nc1cccc(C(=O)c3ccc4c(/C=C/c5ccccc5)n[nH]c4c3)c1)C2 | -1 |  |  |
| COc1ccc(C#N)c(C(=O)Nc2cccc(C(=O)c3ccc4c(/C=C/c5ccccc5)n[nH]c4c3)c2)c1 | -20 |  |  |
| CC1(C)C(C(=O)Nc2cccc(C(=O)c3ccc4c(/C=C/c5ccccc5)n[nH]c4c3)c2)C1(C)C | 51 |  |  |
| CC(=O)NC(C)(C)CC(=O)Nc1cccc(Nc2ccc3c(/C=C/c4ccccc4)n[nH]c3c2)c1 | -9 |  |  |
| O=C(Nc1cccc(Nc2ccc3c(/C=C/c4ccccc4)n[nH]c3c2)c1)C1C[C@H]2C[C@@H]1CCC2O (stereo partly drawn) | -9 |  |  |
| Cc1nc(S)sc1CC(=O)Nc1cccc(Nc2ccc3c(/C=C/c4ccccc4)n[nH]c3c2)c1 | 19 |  |  |
| O=C(/C=C/C1C[C@H]2C=C[C@H]1C2)Nc1cccc(Oc2ccc3c(/C=C/c4ccccc4)n[nH]c3c2)c1 (stereo partly drawn) | 48 |  |  |
| O=C(Cn1ccc2ccccc21)Nc1cccc(C(=O)c2ccc3c(/C=C/c4ccccc4)n[nH]c3c2)c1 | -11 |  |  |
| O=C(Nc1cccc(C(=O)c2ccc3c(/C=C/c4ccccc4)n[nH]c3c2)c1)C1=C[C@@H](O)[C@@H](O)[C@H](O)C1 | -20 |  |  |
| O=C(CCC(=O)N1CCCC1)Nc1cccc(Oc2ccc3c(/C=C/c4ccccc4)n[nH]c3c2)c1 | 48 |  |  |
| O=C(CCC(=O)N1CCCC1)Nc1cccc(C(=O)c2ccc3c(/C=C/c4ccccc4)n[nH]c3c2)c1 | 27 |  |  |
| Cn1cnc(CC(=O)Nc2cccc(Nc3ccc4c(/C=C/c5ccccc5)n[nH]c4c3)c2)c1 | -17 |  |  |
| CCCC(CCC)NC(=O)c1ccccc1Nc1ccc2c(/C=C/c3ccccn3)n[nH]c2c1 |  | 1 | 52 |
| N#CCONC(=O)c1ccccc1Nc1ccc2c(/C=C/c3ccccn3)n[nH]c2c1 |  | 16 | 2 |
| CCCC(CO)NC(=O)c1ccccc1Nc1ccc2c(/C=C/c3ccccn3)n[nH]c2c1 (stereo not drawn) |  | 44 | 40 |
| O=C(O)CCNC(=O)c1ccccc1Nc1ccc2c(/C=C/c3ccccn3)n[nH]c2c1 |  | 4 | 20 |

| Compound | inhibition at 0.01 µM [1] [%] | inhibition at 0.0005 µM [2] [%] | inhibition at 0.002 µM [3] [%] |
| --- | --- | --- | --- |
| O=C(NCc1cccnc1)c1ccccc1Nc1ccc2c(/C=C/c3ccccn3)n[nH]c2c1 |  | 30 | 78 |
| O=C(NCCCN1CCCC1=O)c1ccccc1Nc1ccc2c(/C=C/c3ccccn3)n[nH]c2c1 |  | 25 | 35 |
| O=C(NC(CO)CO)c1ccccc1Nc1ccc2c(/C=C/c3ccccn3)n[nH]c2c1 |  | 48 | 8 |
| C=C(C)CNC(=O)c1ccccc1Nc1ccc2c(/C=C/c3ccccn3)n[nH]c2c1 |  | 65 | 110 |
| O=C(NCc1ccncc1)c1ccccc1Nc1ccc2c(/C=C/c3ccccn3)n[nH]c2c1 |  | 34 | 58 |
| CC1CCCCN1CCCNC(=O)c1ccccc1Nc1ccc2c(/C=C/c3ccccn3)n[nH]c2c1 (stereo not drawn) |  | 25 | 15 |
| O=C(NCCN1CCNCC1)c1ccccc1Nc1ccc2c(/C=C/c3ccccn3)n[nH]c2c1 |  | 37 | 12 |
| CCCCC(CC)NC(=O)c1ccccc1Nc1ccc2c(/C=C/c3ccccn3)n[nH]c2c1 (stereo not drawn) |  | 31 | 30 |
| CCC(COC)NC(=O)c1ccccc1Nc1ccc2c(/C=C/c3ccccn3)n[nH]c2c1 (stereo not drawn) |  | 1 | 65 |
| CC(C)(C)ONC(=O)c1ccccc1Nc1ccc2c(/C=C/c3ccccn3)n[nH]c2c1 |  | -3 | 64 |
| O=C(NC1CCCCCCC1)c1ccccc1Nc1ccc2c(/C=C/c3ccccn3)n[nH]c2c1 |  | 14 | 60 |
| O=C(N[C@H]1CC[C@H](O)CC1)c1ccccc1Nc1ccc2c(/C=C/c3ccccn3)n[nH]c2c1 |  | 23 | 6 |
| O=C(NN1CCCCC1)c1ccccc1Nc1ccc2c(/C=C/c3ccccn3)n[nH]c2c1 |  | 27 | 17 |
| O=C(NCC1CCCO1)c1ccccc1Nc1ccc2c(/C=C/c3ccccn3)n[nH]c2c1 (stereo not drawn) |  | 23 | 44 |
| Cc1ccccc1CNC(=O)c1ccccc1Nc1ccc2c(/C=C/c3ccccn3)n[nH]c2c1 |  | 24 | 99 |
| CC(C)(N)CNC(=O)c1ccccc1Nc1ccc2c(/C=C/c3ccccn3)n[nH]c2c1 |  | 31 | 3 |
| O=C(NOCC(=O)N1CCOCC1)c1ccccc1Nc1ccc2c(/C=C/c3ccccn3)n[nH]c2c1 |  | 15 | -1 |
| CC(CN(C)C)NC(=O)c1ccccc1Nc1ccc2c(/C=C/c3ccccn3)n[nH]c2c1 (stereo not drawn) |  | 23 | 17 |
| O=C(NC1CCS(=O)(=O)C1)c1ccccc1Nc1ccc2c(/C=C/c3ccccn3)n[nH]c2c1 (stereo not drawn) |  | 27 | 2 |
| NC(=O)CCNC(=O)c1ccccc1Nc1ccc2c(/C=C/c3ccccn3)n[nH]c2c1 |  | 8 | 18 |
| CCn1nccc1NC(=O)c1ccccc1Nc1ccc2c(/C=C/c3ccccn3)n[nH]c2c1 |  | 26 | 2 |
